Assay results from patent publication US12240834B2, “Polymorphs of [2-(1H-indol-3-yl)-1H-imidazol-4-yl] (3,4,5-trimethoxyphenyl)methanone and its salts” (VERU INC., priority 2022, dated 2025).

Experiments:
[1] = Polymorph screen summary of forms (stability designation); format: physicochemical
Excerpt: Polymorphism is the ability of a chemical entity to exist in different three-dimensional arrangements in the solid state. Different polymorphic forms of a compound can have different physical properties. […] The screen was designed to prepare as many novel crystalline forms as possible and characterize these polymorphs for use in a pharmaceutical product. […] Samples generated during the study were characterized using differential scanning calorimetry (DSC), polarized light microscopy, thermogravimetric analysis (TGA), X-ray powder diffraction (XRD), Fourier transform infrared spectroscopy (FT-IR), and dynamic vapor sorption (DVS). […] These were essentially the same except for minor changes in the diffraction pattern and DSC thermograms. […] The HCl salt was characterized polymorphic as multiple polymorphic forms were made and characterized as described below. […] Based on diffraction behavior, each polymorphic form was studied to determine differentiation. The characterization of each hydrochloride polymorph form began with an X-ray powder diffraction (XRD) data comparison of each form with the other forms. This was generally followed by DSC and TGA analysis.

[2] = Non-competitive slurry experiments (solid form stability, XRD readout); format: physicochemical; conditions: ambient temperature
Description: In addition to the solvent recrystallization experiments (Example 3), non-competitive slurry (Example 4) and competitive slurry (Example 5) experiments were performed to make new solid-state forms. Non-competitive slurry experiments were performed to search for new solid-state forms. These experiments relied on solubility differences of different polymorphic forms (if the compound is polymorphic).
The solution is saturated with respect to the polymorphic form dissolved. […] In addition, noncompetitive slurry experiments are often useful in identifying solvents that form solvates with the compound.
The slurry experiments were performed by exposing excess starting material, which was in all cases in this experiment Form B, to neat single and binary solvent systems and agitating the resulting suspensions for several days at ambient temperature. The solids were vacuum filtered and analyzed by XRD to determine the resulting form. To avoid possible desolvation or physical change after isolation, the samples were not further dried before X-ray analysis.

[3] = Storage of solid forms at ambient conditions (form conversion)
[4] = Hygroscopicity by dynamic vapor sorption (DVS); format: physicochemical; conditions: for DVS behaviour: moisture adsorption-desorption
Description: Hygroscopicity—Dynamic Vapor Sorption (DVS)
DVS is a gravimetric technique that measures how quickly and how much of a solvent (water) is absorbed by a sample. The relative humidity or vapor concentration surrounding the sample is varied while the change in mass of the sample is measured. […] The mass values at each relative humidity step are used to generate an isotherm. Isotherms are divided in two components: sorption for increasing humidity steps and desorption for decreasing humidity steps. A plot of kinetic data is also used to show the change in mass and humidity as a function of time.
The samples were analyzed using a TA Q5000 automated dynamic vapor sorption analyzer. The samples were dried at higher temperature than ambient over a period of time and then cooled to 25° C. with a dry nitrogen purge over them until they no longer lost mass at 0% RH (relative humidity). The samples were then subjected to 0 to 90% RH, back to 10% RH at 25° C. in 10% RH steps.

COc1cc(C(=O)c2c[nH]c(-c3c[nH]c4ccccc34)n2)cc(OC)c1OC.Cl [Form GH]
Description (stability / hydrate designation of the form) [1]: Hydrate

COc1cc(C(=O)c2c[nH]c(-c3c[nH]c4ccccc34)n2)cc(OC)c1OC [free base (Form I)]
form resulting from slurry (XRD) ([2]; slurried in acetone, THF or toluene, several days): Form II

COc1cc(C(=O)c2c[nH]c(-c3c[nH]c4ccccc34)n2)cc(OC)c1OC.Cl [Form FH]
Description (stability / hydrate designation of the form) [1]: Hydrate

COc1cc(C(=O)c2c[nH]c(-c3c[nH]c4ccccc34)n2)cc(OC)c1OC.Cl [Form H]
Description (stability / hydrate designation of the form) [1]: Stable Form | form conversion on holding at ambient conditions ([3]; held at ambient conditions): not observed to convert to any other polymorphic form

COc1cc(C(=O)c2c[nH]c(-c3c[nH]c4ccccc34)n2)cc(OC)c1OC.Cl [Form B]
Description (stability / hydrate designation of the form) [1]: Metastable | Final Form ([2]; 1-Propanol/EtOAc slurry, 11 Days): Form E1 | Final Form ([2]; 2-Propanol/THF slurry, 11 Days): Form E1 | Final Form ([2]; ACN/Acetone slurry, 11 Days): Form E1 | Final Form ([2]; Acetone slurry, 14 Days): Form D | Final Form ([2]; Acetonitrile slurry, 14 Days): Form D | Final Form ([2]; Ethanol slurry, 14 Days): Solvate | Final Form ([2]; Ethanol/Toluene slurry, 11 Days): Form E1 | Final Form ([2]; Ethanol/acetonitrile slurry, 11 Days): Form E1 | Final Form ([2]; Ethyl acetate slurry, 14 Days): Form B | Final Form ([2]; Heptane slurry, 14 Days): Form B | Final Form ([2]; MeOH/Acetone slurry, 11 Days): Low crystallinity | Final Form ([2]; Methanol slurry, 14 Days): Solvate | Final Form ([2]; Methanol/DCM slurry, 11 Days): Solvate | Final Form ([2]; Methanol/Water slurry, 11 Days): Low crystallinity | Final Form ([2]; Methylene chloride slurry, 14 Days): Form B | Final Form ([2]; TFE/DCM slurry, 11 Days): Form B | Final Form ([2]; TFE/EtOAc slurry, 11 Days): Low order | Final Form ([2]; THF slurry, 14 Days): Form B | Final Form ([2]; Toluene slurry, 14 Days): Form B | Final Form ([2]; Water slurry, 14 Days): Low Crystallinity

COc1cc(C(=O)c2c[nH]c(-c3c[nH]c4ccccc34)n2)cc(OC)c1OC.Cl [Form A]
Description (stability / hydrate designation of the form) [1]: Metastable | total weight gain (DVS) ([4]; at 90% RH): about 0.4% | DVS behaviour [4]: very hydrophobic and does not appear to be prone to hydrate formation

COc1cc(C(=O)c2c[nH]c(-c3c[nH]c4ccccc34)n2)cc(OC)c1OC.Cl [Form CH]
Description (stability / hydrate designation of the form) [1]: Monohydrate | water uptake (DVS) ([4]; at high humidity, returned to starting mass upon completion of the scan): up to 0.95 wt % | DVS behaviour [4]: very low uptake of water adsorption

COc1cc(C(=O)c2c[nH]c(-c3c[nH]c4ccccc34)n2)cc(OC)c1OC.Cl [Form I]
Description (stability / hydrate designation of the form) [1]: Metastable | form conversion on storage ([3]; after a month of storage at ambient conditions): converted to a mixture of Form CH and Form H

COc1cc(C(=O)c2c[nH]c(-c3c[nH]c4ccccc34)n2)cc(OC)c1OC.Cl [Form D]
Description (stability / hydrate designation of the form) [1]: Metastable
